Patent publication US4906565A, “Method for the selective detection of microbial nucleotides” (Minnesota Mining and Manufacturing Company, priority 1986, dated 1990)
Where “and” joins values, the source holds several entries; their conditions need not be identical. Equal values may be shown once.

What was measured:
Assay type in all cases: biochemical
glycerokinase = assay: Inhibition of glycerokinase (protection of ATP), bioluminescent ATP assay in buffer; conditions: for RLU 5 min.: 5 min. after glycerol; for RLU 10 min.: 10 min. after glycerol; for RLU 15 min.: 15 min. after glycerol; for RLU 0 min.: before glycerol added
Experimental: Assay: Glycerol was added last to the samples to initiate the enzyme's activity. Before glycerol was added a 50 μl aliquot was taken from all samples. ATP levels in those aliquots (expressed in RLU) were determined as time zero values. Next glycerol was added to the mixtures and further 50 μl aliquots were taken at 5, 10, and 15 minutes. ATP in all aliquots was measured by bioluminescent means as described. Results:
Assay: Glycerol was added last to the samples to initiate the enzyme's activity. Before glycerol was added a 50 μl aliquot was taken from all samples as time zero. Next glycerol was added to the samples and after 5, 10 and 15 minutes, 50 μl aliquots were again taken. ATP in all aliquots was measured as described.
Assay: Glycerol was added last to the samples to initiate the enzyme's activity. Before glycerol was added a 50 μl aliquot was taken from all samples as time zero. At 5, 10 and 15 minutes after addition of glycerol further 50 μl aliquots were taken from the samples. ATP in all aliquots was measured as described.

firefly luciferase [1] = target: T1, firefly luciferase (Photinus pyralis, UniProt P08659); assay: Effect of inhibitor on the bioluminescent assay of ATP
T1 construct: purchased Lumac/3M Lumit PM
Experimental: Assay: from each sample triplicate 100 μl aliquots were taken. In those aliquots ATP was measured as described.
Assay: from each sample triplicate 100 μl aliquots were taken. ATP in those aliquots was measured as described.
Assay: From each sample triplicate 100 μl aliquots were taken and ATP was measured as described.
Protocol: Eight samples were prepared using materials described above and previously, as shown in TABLE 7-1 and incubated for various periods of time (i.e., 0, 5, 10 and […]) before aliquots were taken and assayed as described.
Protocol: Increasing concentrations of hexokinase, with and without PCMPSA were prepared according to TABLE 8-1 using materials described above and previously.

firefly luciferase [2] = target: T1, firefly luciferase; assay: as above; conditions: for RLU mean / RLU, triplicate aliquots 1, 2, 3: ATP in buffer, no kinase
[3] = PCMB 0.01 mM, glycerokinase 1.6 U/ml
[4] = PCMB 0.05 mM, glycerokinase 1.6 U/ml
[5] = PCMB 0.1 mM, glycerokinase 1.6 U/ml
[6] = PCMB 0.5 mM, glycerokinase 1.6 U/ml
[7] = PCMB 1 mM, glycerokinase 1.6 U/ml
[8] = PCMB 2 mM, glycerokinase 1.6 U/ml
[9] = PCMB 0.01 mM, ATP in buffer, no kinase

T1 sequence (P08659 whole entry): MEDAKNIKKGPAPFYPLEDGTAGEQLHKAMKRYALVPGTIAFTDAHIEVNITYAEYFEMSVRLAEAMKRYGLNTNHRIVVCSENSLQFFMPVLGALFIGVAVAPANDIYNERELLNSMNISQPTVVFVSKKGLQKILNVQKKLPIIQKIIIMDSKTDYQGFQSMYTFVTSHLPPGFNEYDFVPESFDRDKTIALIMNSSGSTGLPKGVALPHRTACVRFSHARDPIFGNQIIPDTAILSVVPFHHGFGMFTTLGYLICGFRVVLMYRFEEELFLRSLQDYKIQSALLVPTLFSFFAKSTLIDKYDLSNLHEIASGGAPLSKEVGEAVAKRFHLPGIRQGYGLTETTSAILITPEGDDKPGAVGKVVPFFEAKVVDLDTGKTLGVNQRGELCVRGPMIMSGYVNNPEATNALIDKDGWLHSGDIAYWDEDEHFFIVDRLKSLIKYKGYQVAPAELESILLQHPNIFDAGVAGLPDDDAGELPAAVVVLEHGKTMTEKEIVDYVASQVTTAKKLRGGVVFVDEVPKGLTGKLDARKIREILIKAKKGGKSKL

## CCN1C(=O)C=CC1=O [NEM, N-ethylmaleimide]
glycerokinase; NEM 4.10 mM, glycerokinase
  RLU 5 min.: 7275 RLU
  RLU 10 min.: 6398 RLU
  RLU 15 min.: 5922 RLU
  RLU 0 min.: 7635 RLU
glycerokinase; NEM 8.14 mM, glycerokinase
  RLU 5 min.: 7130 RLU
  RLU 10 min.: 6623 RLU
  RLU 15 min.: 6365 RLU
  RLU 0 min.: 7742 RLU
glycerokinase; NEM 12.1 mM, glycerokinase
  RLU 5 min.: 7413 RLU
  RLU 10 min.: 6812 RLU
  RLU 15 min.: 6997 RLU
  RLU 0 min.: 7660 RLU
glycerokinase; NEM 19.8 mM, glycerokinase
  RLU 5 min.: 7138 RLU
  RLU 10 min.: 6547 RLU
  RLU 15 min.: 6820 RLU
  RLU 0 min.: 7406 RLU
glycerokinase; NEM 16. mM, glycerokinase
  RLU 5 min.: 7192 RLU
  RLU 10 min.: 7002 RLU
  RLU 15 min.: 6962 RLU
  RLU 0 min.: 7199 RLU
glycerokinase; each NEM concentration tested (4.10-19.8 mM)
  inhibition of glycerokinase (conclusion in words): seems to be inhibited
Firefly luciferase [1]; NEM 19.8 mM, control = 0 mM NEM
  % of control: 86.3%
Firefly luciferase [2]; NEM 4.10 mM
  RLU mean: 14410 RLU
  RLU, triplicate aliquots 1, 2, 3: 14387 RLU and 14794 RLU and 14051 RLU
Firefly luciferase [2]; NEM 4.10 mM, control = 0 mM NEM
  % of control: 97.6%
Firefly luciferase [2]; NEM 8.14 mM
  RLU mean: 14608 RLU
  RLU, triplicate aliquots 1, 2, 3: 14401 RLU and 14667 RLU and 14756 RLU
Firefly luciferase [2]; NEM 8.14 mM, control = 0 mM NEM
  % of control: 99.0%
Firefly luciferase [2]; NEM 12.1 mM
  RLU mean: 13737 RLU
  RLU, triplicate aliquots 1, 2, 3: 14139 RLU and 13794 RLU and 13279 RLU
Firefly luciferase [2]; NEM 12.1 mM, control = 0 mM NEM
  % of control: 93.1%
Firefly luciferase [2]; NEM 16.0 mM
  RLU mean: 13212 RLU
  RLU, triplicate aliquots 1, 2, 3: 12750 RLU and 13438 RLU and 13448 RLU
Firefly luciferase [2]; NEM 16.0 mM, control = 0 mM NEM
  % of control: 89.5%
Firefly luciferase [2]; NEM 19.8 mM
  RLU mean: 12747 RLU
  RLU, triplicate aliquots 1, 2, 3: 13534 RLU and 12596 RLU and 12111 RLU
Firefly luciferase [2]; NEM .414 mM
  RLU mean: 14962 RLU
  RLU, triplicate aliquots 1, 2, 3: 15071 RLU and 15081 RLU and 14735 RLU
Firefly luciferase [2]; NEM .414 mM, control = 0 mM NEM
  % of control: 101.4%
Firefly luciferase [2]; NEM concentrations of Example 5
  interference with the bioluminescent assay of ATP (conclusion in words): interferes only moderately, if at all

## O=C(O)c1cc[c]([Hg][Cl])cc1 [PCMB, p-chloromercuribenzoic acid]
glycerokinase; [3]
  RLU 5 min.: 9121 RLU
  RLU 10 min.: 8982 RLU
  RLU 15 min.: 3913 RLU
  RLU 0 min.: 9065 RLU
glycerokinase; [4]
  RLU 5 min.: 9048 RLU
  RLU 10 min.: 8727 RLU
  RLU 15 min.: 9049 RLU
  RLU 0 min.: 9003 RLU
glycerokinase; [5]
  RLU 5 min.: 9560 RLU
  RLU 10 min.: 9253 RLU
  RLU 15 min.: 9421 RLU
  RLU 0 min.: 9499 RLU
glycerokinase; [6]
  RLU 5 min.: 8800 RLU
  RLU 10 min.: 8617 RLU
  RLU 15 min.: 9028 RLU
  RLU 0 min.: 9041 RLU
glycerokinase; [7]
  RLU 5 min.: 9437 RLU
  RLU 10 min.: 9329 RLU
  RLU 15 min.: 9591 RLU
  RLU 0 min.: 8802 RLU
glycerokinase; [8]
  RLU 5 min.: 7245 RLU
  RLU 10 min.: 7905 RLU
  RLU 15 min.: 7568 RLU
  RLU 0 min.: 7987 RLU
glycerokinase; PCMB final concentration 0.01 mM
  inhibition of glycerokinase (conclusion in words): sufficiently inhibited
glycerokinase; PCMB, Samples 1-6 (0.01-2 mM)
  inhibition of glycerokinase (conclusion in words): very effective inhibitor of glycerokinase
Firefly luciferase [1]; [9]
  RLU mean: 17887 RLU
  RLU, triplicate aliquots 1, 2, 3: 17959 RLU and 18219 RLU and 17484 RLU
Firefly luciferase [1]; PCMB 0.01 mM, control = 0 mM PCMB
  % of control: 97%
Firefly luciferase [1]; PCMB 0.01-1mM
  interference with the bioluminescent assay (conclusion in words): do not significantly interfere
Firefly luciferase [1]; PCMB 10 mM, ATP in buffer, no kinase
  RLU, triplicate aliquots 1, 2, 3: 11 RLU and 10 RLU
Firefly luciferase [2]; PCMB 0.05 mM
  RLU mean: 17508 RLU
  RLU, triplicate aliquots 1, 2, 3: 17984 RLU and 17423 RLU and 17118 RLU
Firefly luciferase [2]; PCMB 0.05 mM, control = 0 mM PCMB
  % of control: 95%
Firefly luciferase [2]; PCMB 0.1 mM
  RLU mean: 18246 RLU
  RLU, triplicate aliquots 1, 2, 3: 17914 RLU and 18720 RLU and 18505 RLU
Firefly luciferase [2]; PCMB 0.1 mM, control = 0 mM PCMB
  % of control: 99%
Firefly luciferase [2]; PCMB 0.5 mM
  RLU mean: 18142 RLU
  RLU, triplicate aliquots 1, 2, 3: 18190 RLU and 18413 RLU and 17824 RLU
Firefly luciferase [2]; PCMB 0.5 mM, control = 0 mM PCMB
  % of control: 99%
Firefly luciferase [2]; PCMB 1 mM
  RLU mean: 13696 RLU
  RLU, triplicate aliquots 1, 2, 3: 14576 RLU and 13556 RLU and 12956 RLU
Firefly luciferase [2]; PCMB 1 mM, control = 0 mM PCMB
  % of control: 75%
Firefly luciferase [2]; PCMB 5 mM
  RLU mean: 10 RLU
  RLU, triplicate aliquots 1, 2, 3: 11 RLU and 10 RLU and 9 RLU
Firefly luciferase [2]; PCMB 5 mM, control = 0 mM PCMB
  % of control: < 1%
Firefly luciferase [2]; PCMB 10 mM
  RLU mean: 10 RLU
Firefly luciferase [2]; PCMB 10 mM, control = 0 mM PCMB
  % of control: < 1%
